Columns and labels:
Assay type in all cases: cell-based
[1] = tested on: lymphoma cell line WSU-DLCL2; experiment: Standard 6-day growth-death assay, WSU-DLCL2; settings: single agent or fixed 1:1 combination; for EC50 / IC50: Homo sapiens, WSUDLCL2, 144 h; for EC50: average of n=2, read-out: dEC50; for IC50: average of n=2, read-out: gIC50; for Ymin-T0 / gIC100: average of n=2
Method: (§1) The majority cell lines were obtained from GSK BioCat group, American Type Culture Collection (ATCC), or the Deutsche Sammlung von Mikroorganismen and Zellbulturen (DSMZ). All cell lines were maintained in growth medium in T75 cm^2 flasks, incubated at 37° C. with 5% CO2 and split every 3 to 4 days. Growth media conditions and cell line information are detailed in Table 1. Cells were counted using the Vi-Cell Analyzer (Beckman Coulter ViCell) to obtain viable cell counts.
(§2) Optimal cell seeding density was determined for all cell lines by monitoring proliferation over a range of seeding densities in 384-well format and identifying the seeding density at which cells grew logarithmically throughout six days. 50 uL of cells per well were plated in 384-well plates at the optimal seeding density in preferred supplemented culture media. Three plates were prepared per cell line and incubated overnight at 37° C. in 5% CO2.
(§3) In these studies, lymphoma cell lines were treated with PRMT5 inhibitor, compound A and BCL-2 targeted inhibitor, ABT-199 single agent or in combination using a fixed 1:1 ratio of each inhibitor over a 20-point titration. For compound A single and fixed 1:1 ratio combination with ABT-199 cell proliferation assay, cells were treated in duplicate with a 20-point, two-fold dilution series of Compound A, ABT-199 (≥14 μM top dose) single or combo treatment, and ≤0.15% DMSO final concentration. Plates were incubated for six days at the conditions described above. Cell growth was measured using CellTiter-Glo (Promega) and luminescence signal was detected with a BioTek Synergy Neo microplate reader. A plate of untreated cells was read at the time of compound/biologic addition to determine the T0 value representing the starting number of cells. Data were fit with a four-parameter equation to generate a concentration response curve using Assay Client software.
(§4) Results were background corrected by subtraction of values from wells containing no cells, expressed as a percentage of the T0 value (value at time=0), and plotted against compound concentration. The T0 value was normalized to 100% and represents the number of cells present at the time of compound addition. The cellular response was determined for each compound using a 4- or 6-parameter curve fit of cell viability against concentration using Assay Client software. Growth IC50 (gIC50) values correspond to the concentration intersecting the mid-point of the growth window (between DMSO and T0 values). Growth IC100 (gIC100) values correspond to the concentration at which 100% growth inhibition is achieved, based on the growth window. The Ymin−T0 value, a measure of net population cell growth or death, is calculated by subtracting the T0 value (100%) from the Ymin value (%) that is determined from the fit of the concentration response curve. Death EC50 (dEC50) values correspond to the concentration at which 50% net cell death is observed.
(§5) Individual curves were quality checked for three criteria: outlier data points, cell growth (population doubling ≥1.5), and proper curve fitting. […] Individual curves were QC checked for outlier data points, cell growth (population doubling ≥1.5), and proper curve fitting. Obvious outlier data points were omitted only as needed to ensure proper curve fit.
(§6) For fixed ratio screening, combination activity was assessed by the fold change in gIC50 compared to the 2 single agent curves by dividing the compound ratio as necessary. Combinations showing >3-fold and >5-fold change from single agent are described as below: • Fold changes ≥5 are considered to represent strong synergy. • Fold changes between 3.0 and 4.9 are considered to represent weak synergy. • Fold changes <3 are considered to represent no synergy.

[2] = tested on: lymphoma cell line U-2932; experiment: Standard 6-day growth-death assay, U-2932; settings: single agent or fixed 1:1 combination; for EC50 / IC50: Homo sapiens, U2932, 144 h; for EC50: average of n=2, read-out: dEC50; for IC50: average of n=2, read-out: gIC50; for Ymin-T0 / gIC100: average of n=2
Method: as §1, §2, §3, §4, §5, §6

[3] = tested on: lymphoma cell line DOHH-2; experiment: Standard 6-day growth-death assay, DOHH-2; settings: single agent or fixed 1:1 combination; for EC50 / IC50: Homo sapiens, 144 h; for EC50: average of n=2, read-out: dEC50; for IC50: average of n=2, read-out: gIC50; for Ymin-T0 / gIC100: average of n=2
Method: as §1, §2, §3, §4, §5, §6

[4] = tested on: lymphoma cell line OCI-LY3; experiment: Standard 6-day growth-death assay, OCI-LY3; settings: single agent or fixed 1:1 combination; for EC50 / IC50: Homo sapiens, 144 h; for EC50: average of n=2, read-out: dEC50; for IC50: average of n=2, read-out: gIC50; for Ymin-T0 / gIC100: average of n=2
Method: as §1, §2, §3, §4, §5, §6

[5] = tested on: lymphoma cell line WSU-FSCCL; experiment: Standard 6-day growth-death assay, WSU-FSCCL; settings: single agent or fixed 1:1 combination; for EC50 / IC50: 144 h; for EC50: average of n=2, read-out: dEC50; for IC50: average of n=2, read-out: gIC50; for Ymin-T0 / gIC100: average of n=2
Method: as §1, §2, §3, §4, §5, §6

[6] = tested on: lymphoma cell line SU-DHL-4; experiment: Standard 6-day growth-death assay, SU-DHL-4; settings: single agent or fixed 1:1 combination; for EC50 / IC50: Homo sapiens, 144 h; for EC50: average of n=2, read-out: dEC50; for IC50: average of n=2, read-out: gIC50; for Ymin-T0 / gIC100: average of n=2
Method: as §1, §2, §3, §4, §5, §6

[7] = tested on: lymphoma cell line JV-M2*; experiment: Standard 6-day growth-death assay, JV-M2*; settings: single agent or fixed 1:1 combination; for IC50: average of n=2, read-out: gIC50; for Ymin-T0 / gIC100: average of n=2
Method: as §1, §2, §3, §4, §5, §6

lymphoma cell line DB = experiment: Standard 6-day growth-death assay, DB; settings: single agent or fixed 1:1 combination; for EC50 / IC50: 144 h; for EC50: average of n=2, read-out: dEC50; for IC50: average of n=2, read-out: gIC50; for Ymin-T0 / gIC100: average of n=2
Method: as §1, §2, §3, §4, §5, §6

CC1(C)CCC(CN2CCN(c3ccc(C(=O)NS(=O)(=O)c4ccc(NCC5CCOCC5)c([N+](=O)[O-])c4)c(Oc4cnc5[nH]ccc5c4)c3)CC2)=C(c2ccc(Cl)cc2)C1 [ABT-199, venetoclax, reference compound]
EC50 [1]: > 14700 nM | IC50 [1]: 6920 nM | Ymin-T0 [1]: 3182% | gIC100 [1]: > 14.7 µM | EC50 [2]: 3070 nM | IC50 [2]: 113 nM | Ymin-T0 [2]: −92% | gIC100 [2]: 1366 nM | EC50 [3]: 1820 nM | IC50 [3]: 51 nM | Ymin-T0 [3]: −69% | gIC100 [3]: 2897 nM | EC50 [4]: 7510 nM | IC50 [4]: 1470 nM | Ymin-T0 [4]: −76% | gIC100 [4]: 7.157 µM | EC50 [5]: 14600 nM | IC50 [5]: 238 nM | Ymin-T0 [5]: −49% | gIC100 [5]: 10.53 µM | EC50 [6]: 13000 nM | IC50 [6]: 673 nM | Ymin-T0 [6]: 316% | gIC100 [6]: 12.485 µM | EC50 ([7]; Homo sapiens, JVM-2, 144 h, average of n=2, read-out: dEC50): 9080 nM | IC50 ([7]; Homo sapiens, JVM-2, 144 h): 27 nM | Ymin-T0 [7]: −63% | gIC100 [7]: 1607 nM | EC50 (lymphoma cell line DB): > 14700 nM | IC50 (lymphoma cell line DB): 2480 nM | Ymin-T0 (lymphoma cell line DB): 449% | gIC100 (lymphoma cell line DB): > 14.7 µM

O=C(NC[C@H](O)CN1CCc2ccccc2C1)c1ccnc(NC2CCC2)c1 [Compound A]
EC50 [1]: > 14700 nM | IC50 [1]: 1160 nM | Ymin-T0 [1]: 2474% | gIC100 [1]: > 14.7 µM | EC50 [2]: 3070 nM | IC50 [2]: 281 nM | Ymin-T0 [2]: −88% | gIC100 [2]: 1542 nM | EC50 [3]: 1940 nM | IC50 [3]: 41 nM | Ymin-T0 [3]: −100% | gIC100 [3]: 1474 nM | EC50 [4]: > 14700 nM | IC50 [4]: 1960 nM | Ymin-T0 [4]: 488% | gIC100 [4]: 14.663 µM | EC50 [5]: > 14700 nM | IC50 [5]: 388 nM | Ymin-T0 [5]: 224% | gIC100 [5]: 14.663 µM | EC50 [6]: > 14700 nM | IC50 [6]: 743 nM | Ymin-T0 [6]: 1083% | gIC100 [6]: 14.663 µM | IC50 ([7]; Homo sapiens, JVM-2, 144 h): 139 nM | Ymin-T0 [7]: −14% | gIC100 [7]: 2211 nM | EC50 (lymphoma cell line DB): > 14700 nM | IC50 (lymphoma cell line DB): 862 nM | Ymin-T0 (lymphoma cell line DB): 194% | gIC100 (lymphoma cell line DB): > 14.7 µM

From patent publication US20210386738A1, “COMBINATION OF PRMT5 INHIBITORS AND BCL-2 INHIBITORS” (GLAXOSMITHKLINE INTELLECTUAL PROPERTY DEVELOPMENT LIMITED, priority 2018, published 2021)
